Experimental data: patent publication US12570612B2, “Substituted nitrogen heterocyclic compound and anesthetic effect thereof” (priority 2019, dated 2026)

Tested on: Sprague-Dawley rats
Experiment: animal or person
Assay type: in vivo
Settings: Rattus norvegicus; LORR, up and down method, tail vein, rats; class symbols; read-out: ED50
Source text: Evaluating indicator: The end point of anesthesia: LORR was used as the end point of anesthesia; General anesthesia effect: the disappearance of forepaw righting reflex in rats lasting for 30 seconds is taken as the index of general anesthesia effect; Anesthesia recovery index: the recovery of rat forepaw righting reflex was used as the index of anesthesia recovery.

SMILES | ED50
C[C@H](c1ccccc1)n1cncc1C(=O)COCCC1CCC1 [Compound C40] | 0.5 to 1 mg/kg
CCOCC(=O)c1cncn1[C@H](C)c1ccccc1 [Compound C34] | 2 to 10 mg/kg
C[C@H](c1ccccc1)n1cnc(F)c1C(=O)COCCC1CCC1 [Compound C74] | 0.04 to 0.5 mg/kg
CCSCC(=O)c1ccnn1[C@H](C)c1ccccc1 [Compound C9, (R)-2-(ethylthio)-1-(1-(1-phenylethyl)-1H-pyrazol-5-yl)ethan-1-one] | 2 to 10 mg/kg

Same assay, conditions: rats

SMILES | Approximate therapeutic index
C[C@H](c1ccccc1)n1cncc1C(=O)COCCC1CCC1 [Compound C40] | >13.8
CCOCC(=O)c1cncn1[C@H](C)c1ccccc1 [Compound C34] | >2.6
C[C@H](c1ccccc1)n1cnc(F)c1C(=O)COCCC1CCC1 [Compound C74] | >42.9
CCSCC(=O)c1ccnn1[C@H](C)c1ccccc1 [Compound C9, (R)-2-(ethylthio)-1-(1-(1-phenylethyl)-1H-pyrazol-5-yl)ethan-1-one] | >2.1

Tested on: Sprague-Dawley rats
Experiment: Pharmacological effect and adverse reactions under the equivalent dose (2ED50), Group C compounds
Assay type: in vivo
Settings: 2ED50, tail vein, rats, n=8
Source text: (§1) Evaluation index: onset time: from the completion of drug injection to the disappearance of forepaw righting reflex in rats; Duration of anesthesia: the time from the disappearance of rat forepaw righting reflex to the recovery of rat forepaw righting reflex; Recovery time of anesthesia: the time from the […] to complete recovery;

SMILES | Righting reflex duration | Sedation duration
C[C@H](c1ccccc1)n1cncc1C(=O)COCCC1CCC1 [Compound C40] | 3.76 ± 1.75 min | 10.48 ± 2.58 min
CCOCC(=O)c1cncn1[C@H](C)c1ccccc1 [Compound C34] | 2.26 ± 0.81 min | 4.89 ± 0.98 min
C[C@H](c1ccccc1)n1cnc(F)c1C(=O)COCCC1CCC1 [Compound C74] | 1.37 ± 0.63 min | 5.68 ± 1.10 min
CCSCC(=O)c1ccnn1[C@H](C)c1ccccc1 [Compound C9, (R)-2-(ethylthio)-1-(1-(1-phenylethyl)-1H-pyrazol-5-yl)ethan-1-one] | 1.56 ± 0.89 min | 6.62 ± 0.72 min

Same assay, conditions: 2ED50, tail vein, rats, n=8; unit min

SMILES | Onset time
C[C@H](c1ccccc1)n1cnc(F)c1C(=O)COCCC1CCC1 [Compound C74] | <60 s

Same assay, conditions: 2ED50, tail vein, rats, n=8; unit s

SMILES | Onset time
C[C@H](c1ccccc1)n1cncc1C(=O)COCCC1CCC1 [Compound C40] | <30 s
CCOCC(=O)c1cncn1[C@H](C)c1ccccc1 [Compound C34] | <30 s
CCSCC(=O)c1ccnn1[C@H](C)c1ccccc1 [Compound C9, (R)-2-(ethylthio)-1-(1-(1-phenylethyl)-1H-pyrazol-5-yl)ethan-1-one] | <30 s

Same assay, conditions: equivalent dose (2ED50), number of rats of n = 8

SMILES | Adverse reaction: Convulsions | Adverse reaction: Cough, broken-winded | Adverse reaction: Euphoria | Adverse reaction: Red urine | Adverse reaction: Slower breathing, Tetany convulsion | Adverse reaction: Systemic stiffness, Convulsions, Opisthotonus | Adverse reaction: Tongue stretching | Adverse reaction: Tremor | Adverse reaction: the four limbs rigidity
C[C@H](c1ccccc1)n1cncc1C(=O)COCCC1CCC1 [Compound C40] | 1 | 0 | 0 | 8 | 1 | 1 | 0 | 0 | 0
CCOCC(=O)c1cncn1[C@H](C)c1ccccc1 [Compound C34] | 0 | 0 | 1 | 8 | 0 | 6 | 1 | 0 | 0
C[C@H](c1ccccc1)n1cnc(F)c1C(=O)COCCC1CCC1 [Compound C74] | 0 | 0 | 0 | 8 | 0 | 0 | 0 | 1 | 0
CCSCC(=O)c1ccnn1[C@H](C)c1ccccc1 [Compound C9, (R)-2-(ethylthio)-1-(1-(1-phenylethyl)-1H-pyrazol-5-yl)ethan-1-one] | 0 | 0 | 0 | 8 | 0 | 0 | 0 | 0 | 0

Tested on: SD rats
Experiment: not given
Settings: after 1 hour continuous infusion at 2 times the MIR, SD rats
Experimental: Experimental Methods: Adult male SD rats with body weight ranging from 250 g to 350 g were selected for continuous infusion test.
Evaluation indexes: the time from the beginning of continuous infusion to the […] of sedation in rats; the time from the cessation of infusion to the restoration of the forepaw turning reflex after 1 hour of continuous infusion; the time from the cessation of infusion to the complete restoration of rats after 1 hour of continuous infusion.

SMILES | After the infusion is stopped: Righting reflex recovery time | Recovery time after stopping infusion
C[C@H](c1ccccc1)n1cncc1C(=O)COCCC1CCC1 [Compound C40] | 16 to 20 min | 27 to 35 min
CCOCC(=O)c1cncn1[C@H](C)c1ccccc1 [Compound C34] | 15 to 20 min | 22 to 28 min
C[C@H](c1ccccc1)n1cnc(F)c1C(=O)COCCC1CCC1 [Compound C74] | 13 to 18 min | 18 to 24 min

Same assay, conditions: continuous infusion 2 x MIR 1 hour; rats affected/rats

SMILES | Types and incidence of adverse reactions: Red urine | Types and incidence of adverse reactions: Tremor | Types and incidence of adverse reactions: Tongue stretching
C[C@H](c1ccccc1)n1cncc1C(=O)COCCC1CCC1 [Compound C40] | 6/6 | 2/6 | –
CCOCC(=O)c1cncn1[C@H](C)c1ccccc1 [Compound C34] | 6/6 | 2/6 | Tongue stretching(4/6)
C[C@H](c1ccccc1)n1cnc(F)c1C(=O)COCCC1CCC1 [Compound C74] | 6/6 | 4/6 | Tongue stretching(4/6)

Same assay, conditions: continuous tail vein infusion at 2 times the MIR, SD rats

SMILES | Sedation onset time
C[C@H](c1ccccc1)n1cncc1C(=O)COCCC1CCC1 [Compound C40] | <5 min
CCOCC(=O)c1cncn1[C@H](C)c1ccccc1 [Compound C34] | <5 min
C[C@H](c1ccccc1)n1cnc(F)c1C(=O)COCCC1CCC1 [Compound C74] | <5 min

Tested on: Sprague-Dawley rats
Experiment: animal or person
Assay type: in vivo
Settings: Rattus norvegicus; LORR, up and down method, tail vein, rats; class symbols; read-out: ED50
Remark: another data set of the same source
Source text: Evaluating indicator: The end point of anesthesia: the disappearance of forepaw righting reflex (lorr) was used as the end point of anesthesia; General anesthesia effect: the disappearance of forepaw righting reflex in rats lasting for 30 seconds is taken as the index of general anesthesia effect; Anesthesia recovery index: the recovery of rat forepaw righting reflex was used as the index of anesthesia recovery.

SMILES | ED50
CCOC(OC)(OC)C(=O)c1cncn1[C@H](C)c1ccccc1 [Compound D78] | 0.5 to 1 mg/kg
CCSC(OC)(OC)C(=O)c1ccnn1[C@H](C)c1ccccc1 [Compound D2] | 2 to 6 mg/kg
C=CCOC(OC)(OC)C(=O)c1ccnn1[C@H](C)c1ccccc1 [Compound D7] | 0.5 to 1 mg/kg
CCOC(OC)(OCC)C(=O)c1cncn1[C@H](C)c1ccccc1 [Compound D79] | 0.5 to 1 mg/kg
COC(=O)C(=O)c1ccnn1[C@H](C)c1ccccc1 [Compound D11] | > 6 mg/kg

Same assay, conditions: rats

SMILES | Approximate therapeutic index
CCOC(OC)(OC)C(=O)c1cncn1[C@H](C)c1ccccc1 [Compound D78] | >6.2
CCSC(OC)(OC)C(=O)c1ccnn1[C@H](C)c1ccccc1 [Compound D2] | >6.6
C=CCOC(OC)(OC)C(=O)c1ccnn1[C@H](C)c1ccccc1 [Compound D7] | >5.4
CCOC(OC)(OCC)C(=O)c1cncn1[C@H](C)c1ccccc1 [Compound D79] | >6.4
COC(=O)C(=O)c1ccnn1[C@H](C)c1ccccc1 [Compound D11] | >4.6

Tested on: Sprague-Dawley rats
Experiment: Pharmacological effect and adverse reactions under the equivalent dose (2ED50), Group D compounds
Assay type: in vivo
Settings: 2ED50, tail vein, rats, n=8
Source text: as §1

SMILES | Righting reflex duration | Sedation duration
CCOC(OC)(OC)C(=O)c1cncn1[C@H](C)c1ccccc1 [Compound D78] | 4.02 ± 1.35 min | 7.29 ± 1.20 min
CCSC(OC)(OC)C(=O)c1ccnn1[C@H](C)c1ccccc1 [Compound D2] | 5.82 ± 1.87 min | 13.71 ± 3.89 min
C=CCOC(OC)(OC)C(=O)c1ccnn1[C@H](C)c1ccccc1 [Compound D7] | 0.55 ± 0.59 min | 8.52 ± 2.29 min
CCOC(OC)(OCC)C(=O)c1cncn1[C@H](C)c1ccccc1 [Compound D79] | 1.75 ± 0.76 min | 5.84 ± 1.46 min

Same assay, conditions: 2ED50, tail vein, rats, n=8; unit min

SMILES | Onset time
CCSC(OC)(OC)C(=O)c1ccnn1[C@H](C)c1ccccc1 [Compound D2] | <1 min
C=CCOC(OC)(OC)C(=O)c1ccnn1[C@H](C)c1ccccc1 [Compound D7] | <1 min

Same assay, conditions: 2ED50, tail vein, rats, n=8; unit s

SMILES | Onset time
CCOC(OC)(OC)C(=O)c1cncn1[C@H](C)c1ccccc1 [Compound D78] | <0.5 min
CCOC(OC)(OCC)C(=O)c1cncn1[C@H](C)c1ccccc1 [Compound D79] | <0.5 min

Same assay, conditions: equivalent dose (2 × ED50), number of rats of n = 8

SMILES | Adverse reaction: Convulsions | Adverse reaction: Cough, broken-winded | Adverse reaction: Euphoria | Adverse reaction: Four limbs rigidity | Adverse reaction: Red urine | Adverse reaction: Slower breathing, Tetany convulsion | Adverse reaction: Systemic stiffness, Convulsions, Opisthotonus | Adverse reaction: Tongue stretching | Adverse reaction: Tremor
CCOC(OC)(OC)C(=O)c1cncn1[C@H](C)c1ccccc1 [Compound D78] | 0 | 0 | 0 | 0 | 8 | 0 | 2 | 1 | 0
CCSC(OC)(OC)C(=O)c1ccnn1[C@H](C)c1ccccc1 [Compound D2] | 0 | 2 | 3 | 0 | 8 | 1 | 0 | 2 | 8
C=CCOC(OC)(OC)C(=O)c1ccnn1[C@H](C)c1ccccc1 [Compound D7] | 0 | 0 | 0 | 1 | 8 | 0 | 0 | 1 | 1
CCOC(OC)(OCC)C(=O)c1cncn1[C@H](C)c1ccccc1 [Compound D79] | 6 | 0 | 0 | 0 | 8 | 0 | 0 | 0 | 1

Tested on: Sprague-Dawley rats
Experiment: not given
Assay type: in vivo
Settings: tail vein

SMILES | Minimal lethal dose
C[C@H](c1ccccc1)n1cncc1C(=O)COCCC1CCC1 [Compound C40] | >8.3 mg/kg
CCOCC(=O)c1cncn1[C@H](C)c1ccccc1 [Compound C34] | >12.8 mg/kg
C[C@H](c1ccccc1)n1cnc(F)c1C(=O)COCCC1CCC1 [Compound C74] | >6.0 mg/kg
CCSCC(=O)c1ccnn1[C@H](C)c1ccccc1 [Compound C9, (R)-2-(ethylthio)-1-(1-(1-phenylethyl)-1H-pyrazol-5-yl)ethan-1-one] | >10.2 mg/kg

Tested on: Sprague-Dawley rats
Experiment: not given
Assay type: in vivo
Settings: tail vein
Remark: another data set of the same source

SMILES | Minimal lethal dose
CCOC(OC)(OC)C(=O)c1cncn1[C@H](C)c1ccccc1 [Compound D78] | >6.8 mg/kg
CCSC(OC)(OC)C(=O)c1ccnn1[C@H](C)c1ccccc1 [Compound D2] | >10.5 mg/kg
C=CCOC(OC)(OC)C(=O)c1ccnn1[C@H](C)c1ccccc1 [Compound D7] | >3.2 mg/kg
CCOC(OC)(OCC)C(=O)c1cncn1[C@H](C)c1ccccc1 [Compound D79] | >2.7 mg/kg
COC(=O)C(=O)c1ccnn1[C@H](C)c1ccccc1 [Compound D11] | >30.2 mg/kg
